Key:
S15V-rP2X3R = biological target: T1, S15V-rP2X3R (Rattus norvegicus, UniProt P49654, S15V); assay: TEVC of ATP-induced currents, S15V-rP2X3R expressed in X. laevis oocytes (peak current protocol); type: cell-based; conditions: 1 µM ATP
T1 construct: expressed in transfected cells; host or cells: Xenopus laevis oocytes (cRNA injection)
T1 sequence (P49654 1-397 S15V): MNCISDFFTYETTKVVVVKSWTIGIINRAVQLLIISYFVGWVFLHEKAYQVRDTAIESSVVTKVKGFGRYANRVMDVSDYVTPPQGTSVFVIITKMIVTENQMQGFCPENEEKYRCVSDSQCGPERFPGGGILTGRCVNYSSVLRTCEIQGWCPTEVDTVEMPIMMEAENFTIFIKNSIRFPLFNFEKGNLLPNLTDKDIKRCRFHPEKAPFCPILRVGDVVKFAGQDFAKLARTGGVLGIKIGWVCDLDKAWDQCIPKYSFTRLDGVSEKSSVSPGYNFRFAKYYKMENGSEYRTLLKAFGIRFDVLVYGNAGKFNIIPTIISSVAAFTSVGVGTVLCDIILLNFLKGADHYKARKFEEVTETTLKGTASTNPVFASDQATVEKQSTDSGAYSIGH
From the text: Oocyte expression plasmids encoding the wild-type (wt) and N-terminally His-tagged (His-) fusion constructs of the hP2X2R, hP2X3R, hP2X4R, and hP2X7R, and the mutant His-^20RMVL^23KVIV^23S^26N-hP2X1R, S^15V-rP2X3R, and His-S^15V-hP2X3R were the same as used in previous research ([Hausmann et al., 2006]; [Wolf et al., 2011]; [Hausmann et al., 2014]; [Obrecht et al., 2019]). In most cases, the N-terminal His-tagged variants of P2XRs were used here and in the previous studies to allow biochemical analyses on affinity-purified proteins using the same constructs. Although this was not required for the present study, it allows for better comparability with our previous studies. […]
(§1) Ion currents mediated by P2X receptors were evoked by the indicated concentration of ATP or α,β-meATP and were recorded 1 or 2 days after cRNA injection at ambient temperature at a holding potential of −60 mV by two-electrode voltage clamp (TEVC) as previously described ([Hausmann et al., 2006]). […]

20KVIV23/26N-hP2X1R = biological target: T2, 20KVIV23/26N-hP2X1R (Homo sapiens, UniProt P51575, L23V/M21V/R20K/V22I); assay: TEVC of ATP-induced currents, hP2X1R mutant in X. laevis oocytes (peak current protocol); type: cell-based
T2 construct: expressed in transfected cells; host or cells: Xenopus laevis oocytes (cRNA injection)
T2 sequence (P51575 1-399 R20K/M21V/V22I/L23V): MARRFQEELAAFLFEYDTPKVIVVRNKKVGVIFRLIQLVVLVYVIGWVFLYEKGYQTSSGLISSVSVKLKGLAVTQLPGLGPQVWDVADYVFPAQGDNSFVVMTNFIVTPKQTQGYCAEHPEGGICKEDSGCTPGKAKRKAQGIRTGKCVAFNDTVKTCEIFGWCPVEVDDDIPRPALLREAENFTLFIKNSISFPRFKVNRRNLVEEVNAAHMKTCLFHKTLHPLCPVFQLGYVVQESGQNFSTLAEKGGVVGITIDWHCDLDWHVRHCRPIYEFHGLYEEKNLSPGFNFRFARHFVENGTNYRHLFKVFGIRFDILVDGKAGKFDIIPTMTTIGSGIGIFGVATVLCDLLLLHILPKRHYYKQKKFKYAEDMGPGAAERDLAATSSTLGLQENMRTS
From the text: Oocyte expression plasmids encoding the wild-type (wt) and N-terminally His-tagged (His-) fusion constructs of the hP2X2R, hP2X3R, hP2X4R, and hP2X7R, and the mutant His-^20RMVL^23KVIV^23S^26N-hP2X1R, S^15V-rP2X3R, and His-S^15V-hP2X3R were the same as used in previous research ([Hausmann et al., 2006]; [Wolf et al., 2011]; [Hausmann et al., 2014]; [Obrecht et al., 2019]). In most cases, the N-terminal His-tagged variants of P2XRs were used here and in the previous studies to allow biochemical analyses on affinity-purified proteins using the same constructs. Although this was not required for the present study, it allows for better comparability with our previous studies. Capped cRNAs of different P2XRs were already available in the research group or were synthesized as previously described ([Schmalzing et al., 1991]; [Stolz et al., 2015]). cRNA was injected into collagenase-defolliculated X. laevis oocytes in aliquots of 41 nl or 23 nl (see Supplementary Table S1 for the amount of cRNA used for expression of the indicated P2XR) using a Nanoliter 2000 injector (World Precision Instruments, Sarasota, United States of America) as described previously ([Hausmann et al., 2014]; [Stolz et al., 2015]; [Obrecht et al., 2019]). To express the heteromeric hP2X2/3 receptor, cRNAs encoding His-hP2X2R and wt-hP2X3R were coinjected at a ratio (w/w) of 1:6. Oocytes were stored at 19°C in an oocyte ringer solution (ORi^+) containing 90 mM NaCl, 1 mM KCl, 1 mM CaCl2, 1 mM MgCl2, and 10 mM HEPES (Carl Roth, Karlsruhe, Germany) adjusted to pH 7.4 with NaOH and supplemented with 50 μg/ml gentamicin (AppliChem, Darmstadt, Germany). […]
as §1

IC50 (S15V-rP2X3R; X. laevis oocytes) [µM]	inhibitory effect at 100 µM FFA (S15V-rP2X3R; 100 µM FFA) [%]	Structure (SMILES)	reversibility of the inhibitory effect (20KVIV23/26N-hP2X1R)	IC50 (20KVIV23/26N-hP2X1R; 1 µM ATP, peak current protocol, X. laevis oocytes) [µM]	inhibition at 1000 µM (20KVIV23/26N-hP2X1R; read-out: Max. inhibition at 1 mM) [%]
264	25	O=C(O)c1ccccc1Nc1cccc(C(F)(F)F)c1 [Flufenamic acid, flufenamic acid]			
		O=C(O)Cc1ccccc1Nc1c(Cl)cccc1Cl [Diclofenac, diclofenac]	reversible	338	86.2
